The source of these data is ChEMBL document CHEMBL1201862, “PubChem BioAssay data set” (2004).

Some test systems named below: HOP-18; RXF 631; LXFL 529; M19-MEL; KM-20L2; SNB-78; DMS-114; XF498; Hs-578T.
Experiment in all cases: NCI tumour cell line growth inhibition, 48 h

Molecules are shown by their SMILES.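 Grown in 96-well plates, cells were treated for 48 hours with each compound at five concentrations. Insufficient inhibition: endpoint recorded as highest concentration tested. GI50 marks 50% less growth.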 Activity calls are given as the source filed them. Cut-off read from the data, not from the text of the source: active = GI50 up to about 1.1 µM and inactive = higher.

For `Sc1nnc(COc2ccc(Cl)cc2)o1`, the GI50 with HOP-18, with RXF 631, with LXFL 529, in the experiment on M19-MEL, with KM-20L2 and with SNB-78 was > 100 µM (inactive) in each case. For the same compound, in the experiment with DMS-114, the GI50 is > 100 µM (inactive).
Regarding `CCCCCCCCSC(SCCCCCCCC)=C1C(=O)N(c2ccccc2)N=C1C`, the GI50 in the experiment with HOP-18 is 61.7 µM (inactive); in the experiment on RXF 631, > 100 µM (inactive); in the experiment on LXFL 529, 43.4 µM (inactive); in the experiment on M19-MEL, 37 µM (inactive); in the experiment with KM-20L2 it was 55.7 µM (inactive); in the experiment on SNB-78, > 100 µM (inactive). Besides, the GI50 in the experiment on DMS-114 was 28.4 µM (inactive).
In the case of `CS(=O)(=O)CSCSSCS(C)(=O)=O`, the GI50 in the experiment on XF498 is 32 µM (inactive); with HOP-18, 37.6 µM (inactive); in the experiment on RXF 631 it was 32 µM (inactive); with LXFL 529, 18.1 µM (inactive); with M19-MEL, > 57.9 µM (inactive); in the experiment on KM-20L2, 55.8 µM (inactive). Moreover, the GI50 in the experiment on SNB-78 is 49.4 µM (inactive); in the experiment on DMS-114, 27.3 µM (inactive).
`O=C1CCC(c2nc3cc(Cl)ccc3o2)C(=O)N1` (stereo unspecified): the GI50 with HOP-18, in the experiment with RXF 631, in the experiment on LXFL 529, with M19-MEL, in the experiment on KM-20L2 and with SNB-78 was > 100 µM (inactive) throughout. For the same compound, the GI50 in the experiment on DMS-114 is > 100 µM (inactive).
For `CC1(C)C2C=CC1C(=O)CC2` (stereo unspecified), the GI50 in the experiment on XF498, in the experiment on HOP-18, with RXF 631, in the experiment with LXFL 529, in the experiment on KM-20L2 and in the experiment with SNB-78 was > 100 µM (inactive) each time.
Turning to `CCOC(=O)CCn1[nH]c(=O)c(Cl)c(Cl)c1=O`, the GI50 in the experiment on XF498, in the experiment on HOP-18, in the experiment with RXF 631, in the experiment on LXFL 529, in the experiment on M19-MEL and in the experiment with KM-20L2 was > 100 µM (inactive) each time. Moreover, the GI50 with SNB-78 and in the experiment with DMS-114 was > 100 µM (inactive) throughout.
On to `COC(=O)/C=C\C1C(C(=O)OC)C2(C(=O)OC)CCC1(C(=O)OC)N2` (stereo unspecified), for which the GI50 in the experiment with XF498 is 19.1 µM (inactive); with HOP-18, 15.1 µM (inactive); with RXF 631, 20.8 µM (inactive); with LXFL 529 it was 6.75 µM (inactive); in the experiment on M19-MEL, 14.7 µM (inactive); in the experiment on KM-20L2 it was 31.9 µM (inactive). In the experiment with SNB-78, the GI50 is 10.2 µM (inactive).
Turning to `N#Cc1cnsc1`, the GI50 in the experiment on XF498, in the experiment with HOP-18, with RXF 631, with LXFL 529, in the experiment with M19-MEL and with KM-20L2 was > 100 µM (inactive) throughout. In addition, the GI50 in the experiment with SNB-78 and in the experiment with DMS-114 was > 100 µM (inactive) in each case.
With `O=C(O/N=C1\CCCC\C1=C/c1ccccc1)c1ccc([N+](=O)[O-])cc1`, the GI50 was > 100 µM (inactive) in the experiment on HOP-18; > 100 µM (inactive) in the experiment on RXF 631; 54 µM (inactive) with LXFL 529; > 100 µM (inactive) in the experiment on M19-MEL; > 100 µM (inactive) in the experiment with KM-20L2; > 100 µM (inactive) in the experiment with SNB-78. In the experiment on DMS-114, the GI50 was 61.9 µM (inactive).
For the compound `CCCCCCCCCCCCCCC(O)C1CCC(C(O)CCC(O)CCCCCC(O)CC2=CC(C)OC2=O)O1` (stereo unspecified), the GI50 in the experiment on XF498 was 1.12 µM (active); with RXF 631, 2.94 µM (inactive); with LXFL 529, 2.11 µM (inactive); in the experiment with M19-MEL it was 2 µM (inactive); in the experiment on KM-20L2, 3.4 µM (inactive); in the experiment with SNB-78, 1.49 µM (inactive). In addition, the GI50 in the experiment with DMS-114 is < 0.01 µM (active).
For the compound `CC(C)(CN1CCCCC1)C(=O)/C=C/c1ccccc1`, the GI50 was 14.7 µM (inactive) in the experiment with XF498; 21.1 µM (inactive) in the experiment on RXF 631; 16.9 µM (inactive) with LXFL 529; 18.9 µM (inactive) in the experiment on M19-MEL; 10.3 µM (inactive) with KM-20L2; 22.5 µM (inactive) with SNB-78. In the experiment with DMS-114, the GI50 was 14.4 µM (inactive).
In the case of `COC1=CC(=O)[C@]2(C)[C@H](C1=O)C(C)[C@H]2c1ccccc1` (stereo partly specified), the GI50 in the experiment with XF498, with RXF 631, in the experiment on LXFL 529, in the experiment with M19-MEL and in the experiment with SNB-78 was > 100 µM (inactive) in each case.
On to `Cn1c(=O)nc2n(-c3ccc(O)cc3)c3ccccc3nc-2c1=O`, for which the GI50 with XF498 is 60 µM (inactive); in the experiment with HOP-18 it was > 100 µM (inactive); in the experiment on RXF 631 it was 63.5 µM (inactive); in the experiment with LXFL 529 it was > 100 µM (inactive); with M19-MEL it was 20 µM (inactive); in the experiment with KM-20L2, 64.3 µM (inactive). Also, the GI50 was > 100 µM (inactive) with SNB-78 and 22.5 µM (inactive) with DMS-114.
Consider `O=C(CCBr)N1CCN(C(=O)CCBr)CC1` [PIPOBROMAN], for which the GI50 in the experiment with XF498 was 66.7 µM (inactive); with HOP-18, 121 µM (inactive); in the experiment on Hs-578T it was 190 µM (inactive); in the experiment on RXF 631, 55.1 µM (inactive); in the experiment with LXFL 529 it was 71.6 µM (inactive); in the experiment with M19-MEL it was 86.9 µM (inactive). Besides, the values for the GI50 in the experiment with KM-20L2, in the experiment with SNB-78 and with DMS-114 were 119 µM (inactive), 114 µM (inactive) and 50.6 µM (inactive), respectively.
